Article PMC10227015, “From a drug repositioning to a structure-based drug design approach to tackle acute lymphoblastic leukemia” (Nature Communications, 2023)
Where two headings read alike, the source gives them in different places.

Legend:
dCK-C3S-S74E [1] = assay: Enzymatic assay (PK/LDH coupled), dC phosphorylation by dCK in the presence of UTP; type: biochemical, human; conditions: for effect on dCK enzymatic activity, activation versus inhibition: UTP 1 mM, dC 200 µM; for ENZYMATIC ASSAY (Activation/Inhibition): presence of UTP
How it was run: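 Activation versus inhibition was judged with 1 mM UTP, 200 µM dC and 2 μM dCK-C3S-S74E, using pyruvate kinase/lactate dehydrogenase coupling that tracks NADH fluorescence decrease at 460 nm. Buffer was HEPES pH 7.5 with MgCl2, KCl and DTT. Rates came from linear slopes, expressed relative to compound-free control.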

dCK-C3S-S74E [2] = assay: Thermal shift assay (TSA); conditions: for ΔTm, dCK thermal stabilization (TSA): 5 μM protein, 50 μM compound; for Thermal Shift Assay Mean (ΔTm (º)): Figure 1b; for THERMAL SHIFT ASSAY +Tm (°): mean ± SD
Source text: BL21 pRIL Escherichia coli cells were transformed with dCK-plasmids (dCK-C4S-S74E (for crystallization assays) and dCK-C3S-S74E (for TSA, enzymatic and ITC assays)). […] Protein dCK-C3S-S74E used for other assays contained only three mutated cysteines. The S74E mutation mimics the phosphorylated state of this serine, which favors the open conformation of the enzyme, making it competent for nucleoside binding[45] to evaluate the binding affinity with compounds.
For binding assays (TSA, ITC and crystallography) cells were re-suspended in 50 mM TRIS, pH 8, 500 mM NaCl, 30 mM imidazole and 10% glycerol buffer and one EDTA free anti-protease tablet was added (Roche). After sonication and centrifugation (30,000 × g), the supernatant was loaded on a 5 ml HisTrap FF column (GE healthcare) pre-equilibrated with resuspension buffer. Protein was then eluted by resuspension buffer containing 500 mM imidazole. Protein eluted fractions were mixed and concentrated. Protein was further purified by size exclusion chromatography (superdex 200 16/600, GE healthcare) in 20 mM HEPES, pH 7.5, and 200 mM NaCl before concentration to 30 mg/ml and storage at −80 °C.
Thermal shift assay (TSA) experiments were performed in 384-well PCR white plates in the assay buffer containing 20 mM HEPES, pH 7.5 and 200 mM NaCl. […] Plates were centrifuged at 200 × g for 2 min at 4 °C. […] Raw fluorescence data were treated, and the melting temperatures (Tm) were calculated using CFX Manager 3.1 software (Bio-Rad). ΔTm represents the difference in Tm between the protein in the presence of compound and the protein alone (both at 2% DMSO). Each experiment was performed at least twice (with technical triplicates) and data are presented as the mean ± SD.

CCRF-CEM cell line = assay: dCK cellular assay: CCRF-CEM proliferation in the presence of dT and dC; type: cell-based, human; conditions: Homo sapiens, CCRF-CEM; for activity at 0.078 µM: 78 nM; for activity at 0.156 µM: 156 nM; for activity at 0.312 µM: 312 nM; for activity at 0.625 µM: 625 nM; for activity at 1.25 µM: 1250 nM; for activity at 2.5 µM: 2500 nM; for activity at 5 µM: 5000 nM; for activity at 20 µM: 20000 nM
How it was run: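 Two conditions in T-ALL CCRF-CEM cells: compound only, and compound with thymidine blocking de novo synthesis and deoxycytidine rescuing via dCK. Metabolic dye fluorescence (560/590 nm) gives % proliferation vs DMSO; IC50s, mean ± SD of at least three triplicate runs.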

[3] = dT 200 µM + dC 1 µM, read-out: Cell proliferation of the CCRF-CEM cell line Mean (% prolif)
[4] = 10000 nM, dT 200 µM + dC 1 µM, read-out: Cell proliferation of the CCRF-CEM cell line Mean (% prolif)
[5] = compound 10 µM + dT 111 µM + dC 1 µM, 72 h, read-out: Cell proliferation of the CCRF-CEM cell line Mean (% prolif)
[6] = read-out: dCK CELLULAR ASSAY IC50 (nM), 200 µM dT and 1 µM dC, read-out: dCK […] ASSAY IC50
[7] = dT 200 µM + dC 1 µM, 72 h, read-out: IC50 cell proliferation

Sequence of dCK-C3S-S74E (P27707 whole entry S74E, form open): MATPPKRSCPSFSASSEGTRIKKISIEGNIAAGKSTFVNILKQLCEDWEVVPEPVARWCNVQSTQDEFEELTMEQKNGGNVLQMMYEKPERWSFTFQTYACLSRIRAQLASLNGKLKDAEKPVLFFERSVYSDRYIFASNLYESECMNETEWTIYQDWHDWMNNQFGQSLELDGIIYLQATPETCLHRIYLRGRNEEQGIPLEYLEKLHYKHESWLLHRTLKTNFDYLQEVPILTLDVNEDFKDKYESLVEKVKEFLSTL

| SMILES | Enzymatic activity (UTP) Mean (% activity) (dCK-C3S-S74E [1]; 0.156 µM) [%] | Enzymatic activity (UTP) Mean (% activity) (dCK-C3S-S74E [1]; 0.31 µM) [%] | Enzymatic activity (UTP) Mean (% activity) (dCK-C3S-S74E [1]; 0.625 µM) [%] | Enzymatic activity (UTP) Mean (% activity) (dCK-C3S-S74E [1]; 1.25 µM) [%] | Enzymatic activity (UTP) Mean (% activity) (dCK-C3S-S74E [1]; 2.5 µM) [%] | Enzymatic activity (UTP) Mean (% activity) (dCK-C3S-S74E [1]; 5 µM) [%] | Enzymatic activity (UTP) Mean (% activity) (dCK-C3S-S74E [1]; 10 µM) [%] | Enzymatic activity (UTP) Mean (% activity) (dCK-C3S-S74E [1]; 20 µM) [%] | Enzymatic activity (UTP) Mean (% activity) (dCK-C3S-S74E [1]; 40 µM) [%] | Enzymatic activity (UTP) Mean (% activity) (dCK-C3S-S74E [1]; 80 µM) [%] | Enzymatic activity (UTP) Mean (% activity) (dCK-C3S-S74E [1]; 160 µM) [%] | effect on dCK enzymatic activity, activation versus inhibition (dCK-C3S-S74E [1]) | ENZYMATIC ASSAY (Activation/Inhibition) (dCK-C3S-S74E [1]) | ΔTm, dCK thermal stabilization (TSA) (dCK-C3S-S74E [2]) [°C] | Thermal Shift Assay Mean (ΔTm (º)) (dCK-C3S-S74E [2]) | THERMAL SHIFT ASSAY +Tm (°) (dCK-C3S-S74E [2]) | activity at 0.078 µM (CCRF-CEM cell line; [3]) [%] | activity at 0.156 µM (CCRF-CEM cell line; [3]) [%] | activity at 0.312 µM (CCRF-CEM cell line; [3]) [%] | activity at 0.625 µM (CCRF-CEM cell line; [3]) [%] | also measured |
| --- | --- | --- | --- | --- | --- | --- | --- | --- | --- | --- | --- | --- | --- | --- | --- | --- | --- | --- | --- | --- | --- |
| Cc1ccc(NC(=O)c2ccc(CN3CCN(C)CC3)cc2)cc1Nc1nc(-c2nccc(N)n2)cs1 [dCKi1] | 119.43 | 140.85 | 200.29 | 208.47 | 211.72 | 205.54 | 84.19 | 45.49 | 12.08 | 5.40 | 0.67 | shifted from activators to inhibitors | A/I | 14.3 | 14.3 º | 14.3 ± 0.4 | 88.7 | 91 | 94.4 | 93.2 | Enzymatic activity (UTP) Mean (% activity) (dCK-C3S-S74E [1]; 0.078 µM): 104.73%; activity at 0.039 µM (CCRF-CEM cell line; 39 nM, dT 200 µM + dC 1 µM, read-out: Cell proliferation of the CCRF-CEM cell line Mean (% prolif)): 94.3%; activity at 1.25 µM (CCRF-CEM cell line; [3]): 98.2%; activity at 2.5 µM (CCRF-CEM cell line; [3]): 91.8%; activity at 5 µM (CCRF-CEM cell line; [3]): 67.7%; activity at 10 µM (CCRF-CEM cell line; [4]): 31%; activity at 20 µM (CCRF-CEM cell line; [3]): 8.1%; activity at 10 µM (CCRF-CEM cell line; [5]): 47%; IC50 (CCRF-CEM cell line; [6]): 6950 ± 2530 nM; IC50 (CCRF-CEM cell line; [7]): 6900 nM |
| Cc1ccc(NC(=O)c2ccc(CN3CCN(C)CC3)cc2)cc1Nc1nc(-c2nc(N)cc(N)n2)cs1 [dCKi2, N-(3-((4-(4,6-diaminopyrimidin-2-yl)thiazol-2-yl)amino)-4-methylphenyl)-4-((4-methylpiperazin-1-yl)methyl)benzamide] | 93.59 | 84.70 | 90.40 | 99.44 | 135.24 | 164.65 | 178.80 | 174.40 | 165.28 | 150.42 | 147.75 | shifted from activators to inhibitors | A/I | 17.3 | 17.3 º | 17.3 ± 0.2 | 95.9 | 91.9 | 100 | 95.6 | activity at 1.25 µM (CCRF-CEM cell line; [3]): 94.5%; activity at 2.5 µM (CCRF-CEM cell line; [3]): 86%; activity at 5 µM (CCRF-CEM cell line; [3]): 58.8%; activity at 10 µM (CCRF-CEM cell line; [4]): 29.6%; activity at 20 µM (CCRF-CEM cell line; [3]): 14%; activity at 40 µM (CCRF-CEM cell line; 40000 nM, dT 200 µM + dC 1 µM, read-out: Cell proliferation of the CCRF-CEM cell line Mean (% prolif)): 6.8%; activity at 10 µM (CCRF-CEM cell line; [5]): 42.3%; IC50 (CCRF-CEM cell line; [6]): 8910 ± 3340 nM; IC50 (CCRF-CEM cell line; [7]): 8900 nM |
